Reference: US11608323B2 (SYNGENTA LIMITED, priority 2013, dated 2023)

What was measured:
Type in all cases: in vivo
ABUTH [1] = assay: Pre-emergence herbicidal activity, glasshouse pot test; conditions: rate 1000 g/Ha, evaluated after 13 days, scale 0-5
How it was run: (§1)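 Damage rated 13 days post-treatment on a 0-5 scale, 5 meaning total plant damage. Pots were sprayed pre-emergence, one day after sowing, with an acetone/water-derived aqueous spray containing 0.5% Tween 20. Plants grew under 14 h light, 65% humidity, 24/16 °C, watered twice daily.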

ALOMY [2] = assay: as above; conditions: rate 1000 g/Ha, evaluated after 13 days, scale 0-5
How it was run: as §1

AMARE [3] = assay: as above; conditions: rate 1000 g/Ha, evaluated after 13 days, scale 0-5
How it was run: as §1

ECHCG [4] = assay: as above; conditions: rate 1000 g/Ha, evaluated after 13 days, scale 0-5
How it was run: as §1

SETFA [5] = assay: as above; conditions: rate 1000 g/Ha, evaluated after 13 days, scale 0-5
How it was run: as §1

ZEAMX [6] = assay: as above; conditions: rate 1000 g/Ha, evaluated after 13 days, scale 0-5
How it was run: as §1

ABUTH [7] = assay: Post-emergence herbicidal activity, glasshouse pot test; conditions: Abutilon theophrasti; application post-emergence; rate 1000 g/Ha; evaluated after 13 days
How it was run: (§2)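 Visual herbicidal injury (0 = no damage, 5 = plant killed) recorded 13 days post-treatment. Treatment consisted of a single spray onto emerged seedlings at day 8; conditions before and after were 24/16 °C, 14 h light, 65% humidity.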

ALOMY [8] = assay: as above; conditions: Alopecurus myosuroides; application post-emergence; rate 1000 g/Ha; evaluated after 13 days
How it was run: as §2

AMARE [9] = assay: as above; conditions: Amaranthus retroflexus; application post-emergence; rate 1000 g/Ha; evaluated after 13 days
How it was run: as §2

ECHCG [10] = assay: as above; conditions: Echinochloa crus-galli; application post-emergence; rate 1000 g/Ha; evaluated after 13 days
How it was run: as §2

SETFA [11] = assay: as above; conditions: Setaria faberi; application post-emergence; rate 1000 g/Ha; evaluated after 13 days
How it was run: as §2

ZEAMX [12] = assay: as above; conditions: Zea mays; application post-emergence; rate 1000 g/Ha; evaluated after 13 days
How it was run: as §2

In the case of COCC1C(O)N(c2cc(C(F)(F)F)ccn2)C(=O)N1C (racemic) [Compound A54], the “ABUTH damage score, application pre-emergence” value (“ABUTH damage score” below) (ABUTH [1]) is reported as 5, the “ALOMY damage score, application pre-emergence” value (“ALOMY damage score” below) (ALOMY [2]) is reported as 3 and the “AMARE damage score, application pre-emergence” value (“AMARE damage score” below) (AMARE [3]) is reported as 5. The “ECHCG damage score, application pre-emergence” value (“ECHCG damage score” below) (ECHCG [4]) was 2, the “SETFA damage score, application pre-emergence” value (“SETFA damage score” below) (SETFA [5]) was 2 and the “ZEAMX damage score, application pre-emergence” value (“ZEAMX damage score” below) (ZEAMX [6]) was 0. The “Post-emergence herbicidal activity ABUTH (damage score 0-5)” value (“Post-emergence herbicidal activity ABUTH” below) (ABUTH [7]) was 5, the “Post-emergence herbicidal activity ALOMY (damage score 0-5)” value (from here on “Post-emergence herbicidal activity ALOMY”) (ALOMY [8]) was 5 and the “Post-emergence herbicidal activity AMARE (damage score 0-5)” value (shortened to “Post-emergence herbicidal activity AMARE”) (AMARE [9]) was 5. The “Post-emergence herbicidal activity ECHCG (damage score 0-5)” value (“Post-emergence herbicidal activity ECHCG” below) (ECHCG [10]) was 5, the “Post-emergence herbicidal activity SETFA (damage score 0-5)” value (from here on “Post-emergence herbicidal activity SETFA”) (SETFA [11]) was 5 and the “Post-emergence herbicidal activity ZEAMX (damage score 0-5)” value (shortened to “Post-emergence herbicidal activity ZEAMX”) (ZEAMX [12]) was 4.
In the case of CC1C(O)N(c2ccc(Cl)cn2)C(=O)N1C (single isomer, unassigned) [Compound A26], the “ABUTH damage score” value (ABUTH [1]) is reported as 4, the “ALOMY damage score” value (ALOMY [2]) is reported as 2 and the “AMARE damage score” value (AMARE [3]) is reported as 3. The “ECHCG damage score” value (ECHCG [4]) was 4, the “SETFA damage score” value (SETFA [5]) was 4 and the “ZEAMX damage score” value (ZEAMX [6]) was 2. For the same molecule, the “Post-emergence herbicidal activity ABUTH” value (ABUTH [7]) was 4, the “Post-emergence herbicidal activity ALOMY” value (ALOMY [8]) was 1 and the “Post-emergence herbicidal activity AMARE” value (AMARE [9]) was 3. The “Post-emergence herbicidal activity ECHCG” value (ECHCG [10]) was 1, the “Post-emergence herbicidal activity SETFA” value (SETFA [11]) was 1 and the “Post-emergence herbicidal activity ZEAMX” value (ZEAMX [12]) was 1.
Cc1ccnc(N2C(=O)N(C)C(C)C2O)c1 (single isomer, unassigned) [Compound A27] was tested, and the “ABUTH damage score” value (ABUTH [1]) was 4, the “ALOMY damage score” value (ALOMY [2]) was 3 and the “AMARE damage score” value (AMARE [3]) was 5. The “ECHCG damage score” value (ECHCG [4]) was 4, the “SETFA damage score” value (SETFA [5]) was 4 and the “ZEAMX damage score” value (ZEAMX [6]) was 3. For the same molecule, the “Post-emergence herbicidal activity ABUTH” value (ABUTH [7]) was 5, the “Post-emergence herbicidal activity ALOMY” value (ALOMY [8]) was 3 and the “Post-emergence herbicidal activity AMARE” value (AMARE [9]) was 5. The “Post-emergence herbicidal activity ECHCG” value (ECHCG [10]) was 3, the “Post-emergence herbicidal activity SETFA” value (SETFA [11]) was 3 and the “Post-emergence herbicidal activity ZEAMX” value (ZEAMX [12]) was 3.
For CCC1C(O)N(c2cc(C(F)(F)F)ccn2)C(=O)N1OC (single isomer, unassigned) [Compound A28], the “ABUTH damage score” value (ABUTH [1]) was 3, the “ALOMY damage score” value (ALOMY [2]) was 4 and the “AMARE damage score” value (AMARE [3]) was 5. The “ECHCG damage score” value (ECHCG [4]) was 4, the “SETFA damage score” value (SETFA [5]) was 5 and the “ZEAMX damage score” value (ZEAMX [6]) was 2. For the same molecule, the “Post-emergence herbicidal activity ABUTH” value (ABUTH [7]) was 4, the “Post-emergence herbicidal activity ALOMY” value (ALOMY [8]) was 5 and the “Post-emergence herbicidal activity AMARE” value (AMARE [9]) was 4. For the same molecule, the “Post-emergence herbicidal activity ECHCG” value (ECHCG [10]) was 5, the “Post-emergence herbicidal activity SETFA” value (SETFA [11]) was 5 and the “Post-emergence herbicidal activity ZEAMX” value (ZEAMX [12]) was 2.
For CC1C(O)N(c2cc(C(C)(C)C)ccn2)C(=O)N1C (single isomer, unassigned) [Compound A30], the “ABUTH damage score” value (ABUTH [1]) was 5, the “ALOMY damage score” value (ALOMY [2]) was 4 and the “AMARE damage score” value (AMARE [3]) was 5. The “ECHCG damage score” value (ECHCG [4]) was 5, the “SETFA damage score” value (SETFA [5]) was 5 and the “ZEAMX damage score” value (ZEAMX [6]) was 2. For the same molecule, the “Post-emergence herbicidal activity ABUTH” value (ABUTH [7]) was 5, the “Post-emergence herbicidal activity ALOMY” value (ALOMY [8]) was 5 and the “Post-emergence herbicidal activity AMARE” value (AMARE [9]) was 5. For the same molecule, the “Post-emergence herbicidal activity ECHCG” value (ECHCG [10]) was 5, the “Post-emergence herbicidal activity SETFA” value (SETFA [11]) was 5 and the “Post-emergence herbicidal activity ZEAMX” value (ZEAMX [12]) was 3.
For Cc1cnc(N2C(=O)N(C)C(C)C2O)cc1C(F)(F)F (single isomer, unassigned) [Compound A51], the “ABUTH damage score” value (ABUTH [1]) was 5, the “ALOMY damage score” value (ALOMY [2]) was 4 and the “AMARE damage score” value (AMARE [3]) was 5. For the same molecule, the “ECHCG damage score” value (ECHCG [4]) was 5, the “SETFA damage score” value (SETFA [5]) was 4 and the “ZEAMX damage score” value (ZEAMX [6]) was 3. The “Post-emergence herbicidal activity ABUTH” value (ABUTH [7]) was 5, the “Post-emergence herbicidal activity ALOMY” value (ALOMY [8]) was 5 and the “Post-emergence herbicidal activity AMARE” value (AMARE [9]) was 5. The “Post-emergence herbicidal activity ECHCG” value (ECHCG [10]) was 5, the “Post-emergence herbicidal activity SETFA” value (SETFA [11]) was 5 and the “Post-emergence herbicidal activity ZEAMX” value (ZEAMX [12]) was 5.
With CON1C(=O)N(c2cc(C(F)(F)F)c(Br)cn2)C(O)C1C (single isomer, unassigned) [Compound A55] the “ABUTH damage score” value (ABUTH [1]) was 5, the “ALOMY damage score” value (ALOMY [2]) was 4 and the “AMARE damage score” value (AMARE [3]) was 5. The “ECHCG damage score” value (ECHCG [4]) was 4, the “SETFA damage score” value (SETFA [5]) was 4 and the “ZEAMX damage score” value (ZEAMX [6]) was 2. The “Post-emergence herbicidal activity ABUTH” value (ABUTH [7]) was 5, the “Post-emergence herbicidal activity ALOMY” value (ALOMY [8]) was 5 and the “Post-emergence herbicidal activity AMARE” value (AMARE [9]) was 5. For the same molecule, the “Post-emergence herbicidal activity ECHCG” value (ECHCG [10]) was 5, the “Post-emergence herbicidal activity SETFA” value (SETFA [11]) was 5 and the “Post-emergence herbicidal activity ZEAMX” value (ZEAMX [12]) was 4.
For CC(=O)Nc1cnc(N2C(=O)N(C)C(C)C2O)cc1C(F)(F)F (single isomer, unassigned) [Compound A56], the “ABUTH damage score” value (ABUTH [1]) was 5, the “ALOMY damage score” value (ALOMY [2]) was 2 and the “AMARE damage score” value (AMARE [3]) was 5. The “ECHCG damage score” value (ECHCG [4]) was 1, the “SETFA damage score” value (SETFA [5]) was 1 and the “ZEAMX damage score” value (ZEAMX [6]) was 0. The “Post-emergence herbicidal activity ABUTH” value (ABUTH [7]) was 5, the “Post-emergence herbicidal activity ALOMY” value (ALOMY [8]) was 4 and the “Post-emergence herbicidal activity AMARE” value (AMARE [9]) was 5. The “Post-emergence herbicidal activity ECHCG” value (ECHCG [10]) was 3, the “Post-emergence herbicidal activity SETFA” value (SETFA [11]) was 2 and the “Post-emergence herbicidal activity ZEAMX” value (ZEAMX [12]) was 1.
In the case of CC1C(O)N(c2cc(C(F)(F)F)c(NC(=O)C(C)(C)C)cn2)C(=O)N1C (single isomer, unassigned) [Compound A57], the “ABUTH damage score” value (ABUTH [1]) is reported as 5, the “ALOMY damage score” value (ALOMY [2]) is reported as 4 and the “AMARE damage score” value (AMARE [3]) is reported as 5. The “ECHCG damage score” value (ECHCG [4]) was 3, the “SETFA damage score” value (SETFA [5]) was 3 and the “ZEAMX damage score” value (ZEAMX [6]) was 1. The “Post-emergence herbicidal activity ABUTH” value (ABUTH [7]) was 5, the “Post-emergence herbicidal activity ALOMY” value (ALOMY [8]) was 5 and the “Post-emergence herbicidal activity AMARE” value (AMARE [9]) was 5. For the same molecule, the “Post-emergence herbicidal activity ECHCG” value (ECHCG [10]) was 5, the “Post-emergence herbicidal activity SETFA” value (SETFA [11]) was 5 and the “Post-emergence herbicidal activity ZEAMX” value (ZEAMX [12]) was 4.
In the case of CON1C(=O)N(c2cc(C(F)(F)F)c(C)cn2)C(O)C1C (single isomer, unassigned) [Compound A58], the “ABUTH damage score” value (ABUTH [1]) is reported as 5, the “ALOMY damage score” value (ALOMY [2]) is reported as 4 and the “AMARE damage score” value (AMARE [3]) is reported as 5. The “ECHCG damage score” value (ECHCG [4]) was 3, the “SETFA damage score” value (SETFA [5]) was 3 and the “ZEAMX damage score” value (ZEAMX [6]) was 4. The “Post-emergence herbicidal activity ABUTH” value (ABUTH [7]) was 5, the “Post-emergence herbicidal activity ALOMY” value (ALOMY [8]) was 4 and the “Post-emergence herbicidal activity AMARE” value (AMARE [9]) was 5. For the same molecule, the “Post-emergence herbicidal activity ECHCG” value (ECHCG [10]) was 5, the “Post-emergence herbicidal activity SETFA” value (SETFA [11]) was 5 and the “Post-emergence herbicidal activity ZEAMX” value (ZEAMX [12]) was 4.
